Experimental data from patent US9802957B2, “Processes of preparing a JAK1 inhibitor and new forms thereto” (Incyte Corporation, priority 2014, dated 2017).
Blank lines part the entries; values can stand above or below the molecule they belong to.

Tests used:
[1] = biological target: T1, human JAK2 (a.a. 828-1132) (Homo sapiens, UniProt O60674); experiment: In vitro JAK kinase assay (HTRF), JAK2; type: biochemical; details: 1 mM ATP
T1 construct: JAK2 (a.a. 828-1132); made in house; host or cells: insect cells (baculovirus)
T1 sequence (O60674 828-1132): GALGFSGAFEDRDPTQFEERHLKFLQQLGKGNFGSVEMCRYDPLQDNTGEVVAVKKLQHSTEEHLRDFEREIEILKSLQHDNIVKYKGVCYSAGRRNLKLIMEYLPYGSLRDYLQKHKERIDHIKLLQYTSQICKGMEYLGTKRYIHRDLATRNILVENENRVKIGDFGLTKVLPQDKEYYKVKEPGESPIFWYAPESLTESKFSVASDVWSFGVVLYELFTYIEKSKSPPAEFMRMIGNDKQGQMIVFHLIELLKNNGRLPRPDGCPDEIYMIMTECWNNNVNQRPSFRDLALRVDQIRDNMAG
Description: (§1) Compounds herein were tested for inhibitory activity of JAK targets according to the following in vitro assay described in Park et al., Analytical Biochemistry 1999, 269, 94-104. The catalytic domains of human JAK1 (a.a. 837-1142), JAK2 (a.a. 828-1132) and JAK3 (a.a. 781-1124) were expressed using baculovirus in insect cells and purified. The catalytic activity of JAK1, JAK2 or JAK3 was assayed by measuring the phosphorylation of a biotinylated peptide. The phosphorylated peptide was detected by homogenous time resolved fluorescence (HTRF). IC50s of compounds were measured for each kinase in the 40 μL, reactions that contain the enzyme, ATP and 500 nM peptide in 50 mM Tris (pH 7.8) buffer with 100 mM NaCl, 5 mM DTT, and 0.1 mg/mL (0.01%) BSA. For the 1 mM IC50 measurements, ATP concentration in the reactions was 1 mM. Reactions were carried out at room temperature for 1 hour and then stopped with 20 μL 45 mM EDTA, 300 nM SA-APC, 6 nM Eu-Py20 in assay buffer (Perkin Elmer, Boston, Mass.). Binding to the Europium labeled antibody took place for 40 minutes and HTRF signal was measured on a PHERAi star plate reader (BMG, Cary, N.C.).

[2] = system: human JAK1 (a.a. 837-1142); experiment: In vitro JAK kinase assay (HTRF), JAK1; type: biochemical
Description: as §1

[3] = biological target: T2, human JAK1 (a.a. 837-1142) (Homo sapiens, UniProt P23458); experiment: In vitro JAK kinase assay (HTRF), JAK1; type: biochemical; details: 1 mM ATP
T2 construct: The catalytic domains of human JAK1 (a.a. 837-1142); made in house; host or cells: insect cells (baculovirus)
T2 sequence (P23458 849-1154): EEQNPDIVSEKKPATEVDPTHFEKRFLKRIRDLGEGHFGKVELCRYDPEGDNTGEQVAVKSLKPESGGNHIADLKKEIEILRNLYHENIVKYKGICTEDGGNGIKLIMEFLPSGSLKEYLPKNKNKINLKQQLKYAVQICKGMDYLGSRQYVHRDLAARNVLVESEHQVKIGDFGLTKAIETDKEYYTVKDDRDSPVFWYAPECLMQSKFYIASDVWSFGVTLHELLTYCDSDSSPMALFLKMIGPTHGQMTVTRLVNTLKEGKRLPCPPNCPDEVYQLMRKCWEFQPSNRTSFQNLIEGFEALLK
Description: as §1

[4] = Dynamic Vapor Sorption (DVS) study; type: physicochemical
Description: Some of the compounds prepared were analyzed using Dynamic Vapor Sorption (DVS). Typical DVS conditions are as follows: SGA-100 Symmetric Vapor Sorption Analyzer from VTI Corporation. The moisture uptake profile was completed in four cycles in 10% relative humidity (RH) increments with the first adsorption from 25% to 95% RH, followed by desorption in 10% increments from 95% to 5% RH. The equilibration criteria were 0.0050 wt % in 5 minutes with a maximum equilibration time of 180 minutes; Data logging interval: 2.00 min or 0.0100 wt %. All adsorption and desorption were performed at room temperature (25° C.). No pre-drying step was applied.
A Dynamic Vapor Sorption (DVS) study was conducted on the compound of Example 9 to monitor the hydroscopicity, hydrate formation and dehydration, as well as solid form transformation. The moisture uptake profile was completed in four cycles in 10% relative humidity (RH) increments with the first adsorption from 25% to 95% RH, followed by desorption in 10% increments from 95% to 5% RH. The equilibration criteria were as follows: 0.0050 wt % in 5 minutes with a maximum equilibration time of 180 minutes. All adsorption and desorption were performed at room temperature (25° C.). No pre-drying step was applied for the sample.

[5] = Humidity Chamber Study B; type: physicochemical; details: 30° C., 90% relative humidity, 7 days
Description: Temperature: 30° C.; Relative humidity: 90%; Time: 7 days.
The compound of Example 9 was placed in a humidity chamber set at 30° C. and 90% relative humidity (RH) for 7 days. […] The XRPD patterns of the 30° C./90% RH sample corresponded to the hydrate form obtained from an aqueous suspension of the anhydrous crystalline free base drug substance.

[6] = Humidity Chamber Study A; type: physicochemical; details: 40° C., 75% relative humidity, 5 days
Description: Temperature: 40° C.; Relative humidity: 75%; Time: 5 days.
The compound of Example 9 was placed in a humidity chamber set at 40° C. and 75% relative humidity for 5 days.

IC50 [1]: ≤ 1000 nM
JAK2/JAK1 ratio ([2]; 1 mM ATP, ratio of IC50s): > 10
JAK2/JAK1 IC50 ratio ([2]; general statement of selectivity for JAK1 over JAK2): > 10
IC50 [3]: ≤ 100 nM
SMILES: C[C@@H](O)c1nc2cnc3ccsc3c2n1[C@H]1CC[C@H](CC#N)OC1 [Formula Ia, 2-((2R,5S)-5-(2-((R)-1-hydroxyethyl)-1H-imidazo[4,5-d]thieno[3,2-b]pyridin-1-yl)tetrahydro-2H-pyran-2-yl)acetonitrile]

Dehydration process from the hydrate to the anhydrous form ([4]; DVS desorption, 25° C.): very slow, even at 5% RH
SMILES: C[C@@H](O)c1nc2cnc3ccsc3c2n1[C@H]1CC[C@H](CC#N)OC1 [Example 10, 2-((2R,5S)-5-(2-((R)-1-hydroxyethyl)-1H-imidazo[4,5-d]thieno[3,2-b]pyridin-1-yl)tetrahydro-2H-pyran-2-yl)acetonitrile monohydrate]
Physical stability to humidity ([4]; DVS, 25° C.): physically stable in a wide range of humidity conditions

Water content by KF after humidity chamber [5]: 4.72%
Weight loss observed by TGA after humidity chamber [5]: 5.05%
Water absorption of the anhydrous form ([4]; DVS, 25° C., four cycles, 5% to 95% RH): slow below 85% RH and fast above 85% RH
Solid form after DVS cycle 4 ([4]; DVS, 25° C., XRPD before and after): fully converted to the hydrate form
Water content by KF after humidity chamber [6]: 4.6%
Weight loss observed by TGA after humidity chamber [6]: 5.01%
SMILES: C[C@@H](O)c1nc2cnc3ccsc3c2n1[C@H]1CC[C@H](CC#N)OC1 [Example 9, 2-((2R,5S)-5-(2-((R)-1-hydroxyethyl)-1H-imidazo[4,5-d]thieno[3,2-b]pyridin-1-yl)tetrahydro-2H-pyran-2-yl)acetonitrile]
Solid form by XRPD after humidity chamber [5]: converted to the crystalline hydrate form
Behaviour under ambient storage conditions ([4]; ambient storage): slowly absorb water and convert to hydrate form
Solid form by XRPD after humidity chamber [6]: converted to the crystalline hydrate form
